Entries after “also recorded” stand apart in the source; their conditions may differ.
Assays:
Assay type in all cases: physicochemical
[1] = Compatibility study of minocycline hydrochloride with excipients (visual inspection); conditions: for Compatibility with Minocycline HCl: summary, tested after the storage for up to 3 weeks; for Compatibility with MCH: surfactants: MCH:excipient 1:50, surfactant solubilized in mineral oil; for Compatibility with MCH: surfactants / Compatibility with MCH: oily emollients and waxes: 25° C. and 40° C.; for Compatibility with MCH: hydrophilic solvents: MCH: excipient 1:250, suspension at 25° C. and 40° C. for maximum of sixty days; for Compatibility with MCH: oily emollients and waxes: MCH:excipient 1:250 for oily emollients and 1:50 for waxes, max sixty days; for Compatibility with Minocycline HCl (discussion of compatibility studies): excipient named as label, storage up to 3 weeks; for Effect of added antioxidant on MCH degradation: MCH suspensions comprising water or non-compatible excipients; for Effect of added anti-oxidant on oxidation of Minocycline HCl: waterless medium of propylene glycol and PEG 200
Experimental: (§1) Active agent is incubated with various excipients individually at one or more temperatures and at different ratios of active agent to a single excipient for a certain fixed period or to the point where degradation was suspected. […] Visual inspection is a criterion for indication of compatibility. Any change of color indicates oxidation or degradation. […] Tests are also carried out with combinations of excipients.

[2] = Doxycycline Hyclate compatibility test; conditions: for Visual inspection after the storage at 25° C. / Visual inspection after the storage at 40° C. / Visual inspection after the storage at 50° C.: stored two weeks; for Effect of added anti-oxidant on oxidation of Doxycycline Hyclate: waterless medium of propylene glycol and PEG 200
Experimental: as §1
(§2) A similar compatibility study was conducted for Doxycycline Hyclate and Doxycycline Monohydrate.
(§3) Different compositions of hydrophilic and hydrophobic solvents containing Doxycycline Hyclate (Set I and Set II) and Doxycycline Monohydrate (Set III) were prepared by weighing the antibiotic in a glass vial and shaking overnight with each solvent investigated.
Group II included Doxycycline Hyclate mixed with various vehicles with addition of antioxidants like alpha tocopherol, butylated hydroxytoluene (BHT), and ascorbic acid.

[3] = Doxycycline Monohydrate compatibility test; conditions: for Visual inspection after the storage at 25° C. / Visual inspection after the storage at 40° C. / Visual inspection after the storage at 50° C. / Visual inspection at T-0: mixture of 1.04% w/w Doxycycline Monohydrate with the ingredient; for Visual inspection after the storage at 25° C. / Visual inspection after the storage at 40° C. / Visual inspection after the storage at 50° C.: stored two weeks; for Visual inspection at T-0: two weeks study; for Effect of added anti-oxidant on oxidation of Doxycycline Monohydrate: waterless medium of propylene glycol and PEG 200
Experimental: Active agent is incubated with various excipients individually at one or more temperatures and at different ratios of active agent to a single excipient for a certain fixed period or to the point where degradation was suspected. The period can be for example 3 or 7 or 14 or 21 or 28 days or longer. Visual inspection is a criterion for indication of compatibility. Any change of color indicates oxidation or degradation. […] Tests are also carried out with combinations of excipients.
as §2, §3
A similar compatibility test was performed on another form of Doxycycline—Doxycycline Monohydrate.

[4] = MCH:excipient 1:50, 25° C. and 40° C., visual inspection
[5] = summary, tested after the storage for up to 3 weeks
[6] = mixture of 1.04% w/w Doxycycline Hyclate with the ingredient
[7] = mixtures of 1.04% w/w, excipient named as label, storage at 25° C., 40° C. and 50° C. for two weeks, listed as Ethanol 95%
[8] = mixtures of 1.04% w/w, excipient named as label, storage at 25° C., 40° C. and 50° C. for two weeks, listed as ethanol 95%
[9] = mixtures of 1.04% w/w, excipient named as label, storage at 25° C., 40° C. and 50° C. for two weeks

CCCCCCCCCCCCCCCCCCO [Stearyl alcohol]
Compatibility with MCH: foam adjuvants [1, 4]: compatible
Compatibility with Minocycline HCl [1]: Yes
Compatibility with Doxycycline Hyclate [2, 5]: Yes

CCCCCCCCCCCCCCCCCC(=O)O [Stearic acid]
Compatibility with MCH: foam adjuvants [1, 4]: compatible

SPAN 80
Compatibility with MCH: surfactants ([1]; visual inspection): incompatible

CC(O)CO (stereo not shown) [Propylene glycol]
Compatibility with MCH: hydrophilic solvents ([1]; visual inspection): incompatible
Compatibility with Minocycline HCl [1]: No
Compatibility with Doxycycline Hyclate [2, 5]: No
Compatibility with Doxycycline Monohydrate [3, 5]: No

SPAN 40
Compatibility with MCH: surfactants ([1]; visual inspection): incompatible

CC(C)OC(=O)CCCCC(=O)OC(C)C [Diisopropyl adipate]
Compatibility with Minocycline HCl [1]: Yes
Compatibility with Doxycycline Hyclate [2, 5]: Yes
Compatibility with Doxycycline Monohydrate [3, 5]: No

CCCCCCCCCCCCCC(=O)OC(C)C [Isopropyl myristate]
Compatibility with MCH: oily emollients and waxes ([1]; visual inspection): compatible

C[S+](C)[O-] [Dimethyl Sulfoxide]
Compatibility with MCH: hydrophilic solvents ([1]; visual inspection): incompatible

CCOCCOCCO [Diethylene glycol monoethyl ether]
Compatibility with MCH: hydrophilic solvents ([1]; visual inspection): incompatible

CC(C)CCCCCCCCCCCCCCC(=O)O [Isostearic acid]
Compatibility with MCH: foam adjuvants [1, 4]: not compatible
Compatibility with Minocycline HCl [1]: No
Compatibility with Doxycycline Hyclate [2, 5]: Yes

CCCCCCCCCCCCCCO [Myristyl alcohol]
Compatibility with MCH: foam adjuvants [1, 4]: compatible
Compatibility with Minocycline HCl [1]: Yes
Compatibility with Doxycycline Hyclate [2, 5]: Yes

CO[C@H]1CO[C@H]2[C@@H]1OC[C@H]2OC [Dimethyl Isosorbide]
Compatibility with MCH: hydrophilic solvents ([1]; visual inspection): incompatible
Compatibility with Minocycline HCl [1]: No
Visual inspection after the storage at 25° C. [2, 6]: Yellow solution
Visual inspection after the storage at 40° C. [2, 6]: Brownish orange
Visual inspection after the storage at 50° C. [2, 6]: Orange solution
Visual inspection at T-0 ([2]; mixture of 1.04% w/w Doxycycline Hyclate with the ingredient, two weeks study): yellow solution
Compatibility with Doxycycline Hyclate [2, 5]: No
Visual inspection after the storage at 25° C. [3]: orange solution
Visual inspection after the storage at 40° C. [3]: orange solution
Visual inspection after the storage at 50° C. [3]: Orange solution
Visual inspection at T-0 [3]: yellow solution
Compatibility with Doxycycline Monohydrate [3, 5]: No

CCCCCCCCCCCCCCCCCCCCCCO [Behenyl alcohol]
Compatibility with MCH: foam adjuvants [1, 4]: compatible

CC(C)OC(=O)CCCCC(=O)OC(C)C [Disopropyl adipate]
Compatibility with MCH: oily emollients and waxes ([1]; visual inspection): compatible

Sorbitan Monostearate
Compatibility with Minocycline HCl [1]: Yes
Compatibility with Doxycycline Hyclate [2, 5]: Yes

CCO [Ethanol]
Compatibility with MCH: hydrophilic solvents ([1]; visual inspection): incompatible
Compatibility with Minocycline HCl (discussion of compatibility studies) [1]: changed their colour from yellow to orange
Compatibility with Minocycline HCl [1]: No
Compatibility with Doxycycline Hyclate [2, 7]: stability
Compatibility with Doxycycline Hyclate [2, 8]: stable
Compatibility with Doxycycline Hyclate [2, 5]: Yes
Visual inspection after the storage at 25° C. [3]: Brown solution
Visual inspection after the storage at 40° C. [3]: Brown solution
Visual inspection after the storage at 50° C. [3]: Black solution
Compatibility with Doxycycline Monohydrate [3, 7]: changed their colour from yellow to orange
Compatibility with Doxycycline Monohydrate [3, 8]: oxidized
Compatibility with Doxycycline Monohydrate [3, 5]: No

C[Si]1(C)O[Si](C)(C)O[Si](C)(C)O[Si](C)(C)O[Si](C)(C)O1 [Cyclomethicone 5 NF]
Compatibility with Minocycline HCl [1]: Yes
Compatibility with Doxycycline Hyclate [2, 5]: Yes
Compatibility with Doxycycline Monohydrate [3, 5]: Yes

CCCCCCCCCCCCCCCCO [Cetyl alcohol]
Compatibility with MCH: foam adjuvants [1, 4]: compatible

O [water]
Effect of addition of water on MCH suspended in compatible excipients ([1]; minimal quantities of water (100 μL) added): prompt degradation of MCH

CCCCCCCCCCC(CO)CCCCCCCC (stereo not shown) [Octyl dodecanol]
Compatibility with MCH: oily emollients and waxes ([1]; visual inspection): compatible
Compatibility with Minocycline HCl (discussion of compatibility studies) [1]: full compatibility; also recorded: compatible
Compatibility with Minocycline HCl [1]: Yes
Compatibility with Doxycycline Hyclate [2, 9]: incompatibility
Compatibility with Doxycycline Hyclate [2, 5]: No
Compatibility with Doxycycline Monohydrate [3, 9]: incompatibility
Compatibility with Doxycycline Monohydrate [3, 5]: No

Sorbitan sesquistearate
Compatibility with MCH: surfactants ([1]; visual inspection): incompatible

Cyclomethicone
Compatibility with MCH: oily emollients and waxes ([1]; visual inspection): compatible

OCCCCO [Butylene Glycol]
Compatibility with MCH: hydrophilic solvents ([1]; visual inspection): incompatible
Compatibility with Minocycline HCl [1]: No
Visual inspection after the storage at 50° C. [2, 6]: Light orange solution
Compatibility with Doxycycline Hyclate [2, 5]: No
Visual inspection after the storage at 25° C. [3]: Orange solution
Visual inspection after the storage at 50° C. [3]: black solution
Compatibility with Doxycycline Monohydrate [3, 5]: No

Sorbitan Monolaurate
Compatibility with Minocycline HCl [1]: No
Visual inspection after the storage at 25° C. [2, 6]: Brown solution
Visual inspection after the storage at 40° C. [2, 6]: Brown solution
Visual inspection after the storage at 50° C. [2, 6]: Black solution
Compatibility with Doxycycline Hyclate [2, 5]: No
Visual inspection after the storage at 25° C. [3]: orange solution
Visual inspection after the storage at 40° C. [3]: Brown solution
Visual inspection after the storage at 50° C. [3]: brown solution
Visual inspection at T-0 [3]: Brown mixture
Compatibility with Doxycycline Monohydrate [3, 5]: No

CCCCCCCC/C=C\CCCCCCCC(=O)O [Oleic acid]
Compatibility with MCH: foam adjuvants [1, 4]: compatible

OCC(O)CO [Glycerin]
Compatibility with MCH: hydrophilic solvents ([1]; visual inspection): incompatible
Compatibility with Minocycline HCl (discussion of compatibility studies) [1]: intensive oxidation
Compatibility with Minocycline HCl [1]: No
Compatibility with Doxycycline Hyclate [2, 5]: No
Compatibility with Doxycycline Monohydrate [3, 5]: No

CCCCCCCCCCCCCCCC(=O)O [Palmitic acid]
Compatibility with MCH: foam adjuvants [1, 4]: compatible

CC1CCC(C(C)C)C(O)C1 (stereo not shown) [Menthol]
Compatibility with MCH: additives [1, 4]: compatible

CC(C)CCCCCCCCCCCCCCCO [Isostearyl alcohol]
Compatibility with MCH: foam adjuvants [1, 4]: compatible

SPAN 60
Compatibility with MCH: surfactants ([1]; visual inspection): incompatible

CCCOC(=O)c1cc(O)c(O)c(O)c1 [propyl gallate]
Effect of added antioxidant on MCH degradation [1]: did not prevent MCH degradation

CCCCCCCCCCCCCCCCCC(=O)OCC(O)CO (stereo not shown) [Glyceryl monostearate]
Compatibility with MCH: surfactants ([1]; visual inspection): incompatible

O=C1O[C@H]([C@@H](O)CO)C(O)=C1O [ascorbic acid]
Effect of added anti-oxidant on oxidation of Minocycline HCl [1]: did not prevent the oxidation
Effect of added anti-oxidant on oxidation of Doxycycline Hyclate [2]: did not prevent the oxidation
Effect of added anti-oxidant on oxidation of Doxycycline Monohydrate [3]: did not prevent the oxidation

Cc1c(C)c2c(c(C)c1O)CC[C@@](C)(CCC[C@H](C)CCC[C@H](C)CCCC(C)C)O2 [alpha-tocopherol]
Effect of added antioxidant on MCH degradation [1]: did not prevent MCH degradation
Effect of added anti-oxidant on oxidation of Minocycline HCl [1]: did not prevent the oxidation
Effect of added anti-oxidant on oxidation of Doxycycline Hyclate [2]: did not prevent the oxidation
Effect of added anti-oxidant on oxidation of Doxycycline Monohydrate [3]: did not prevent the oxidation

CCCCCCCC/C=C\CCCCCCCCO [Oleyl alcohol]
Compatibility with MCH: foam adjuvants [1, 4]: compatible
Compatibility with Minocycline HCl [1]: Yes
Compatibility with Doxycycline Hyclate [2, 5]: Yes
